Test results as given in ChEMBL document CHEMBL4190257, “Discovery of phenylsulfonyl acetic acid derivatives with improved efficacy and safety as potent free fatty acid receptor 1 agonists for the treatment of type 2 diabetes” (Eur J Med Chem, 2017).

Experiments:
[1] = biological target: T1, Free fatty acid receptor 1 (Homo sapiens, UniProt O14842); assay: Agonist activity at human FFA1 receptor expressed in CHO cells assessed as increase in intracellular calcium flux by Fluo 4AM dye-based FLIPR assay; assay type: functional, cell-based
T1 sequence (O14842 whole entry): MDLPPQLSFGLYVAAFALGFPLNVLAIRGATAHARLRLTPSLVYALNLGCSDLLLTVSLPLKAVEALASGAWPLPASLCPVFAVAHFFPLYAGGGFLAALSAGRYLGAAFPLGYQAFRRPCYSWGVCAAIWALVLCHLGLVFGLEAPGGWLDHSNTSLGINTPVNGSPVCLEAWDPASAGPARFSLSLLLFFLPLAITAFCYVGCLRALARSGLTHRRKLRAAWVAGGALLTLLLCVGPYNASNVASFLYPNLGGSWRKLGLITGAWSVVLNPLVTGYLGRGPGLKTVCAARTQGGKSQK

HepG2 = assay: Apoptotic cytotoxicity in human HepG2 cells assessed as caspase-3/7 activity at 30 uM after 24 hrs by caspase-glo-3/7 assay relative to staurosporine; assay type: cell-based; settings: hepg2, 24 h
[2] = biological target: T1, Free fatty acid receptor 1; assay: Agonist activity at human FFA1 receptor expressed in CHO cells assessed as increase in intracellular calcium flux at 10 uM by Fluo 4AM dye-based FLIPR assay relative to TAK-875; assay type: functional, cell-based
[3] = Octanol/phosphate buffer distribution coefficient, log D of the compound at 100 uM at pH 7.4 after 24 hrs by shake flask method; assay type: physicochemical
[4] = Drug level in Sprague-Dawley rat plasma treated with 2-((4-((2'-chloro-[1,1'-biphenyl]-3-yl)methoxy)phenyl)sulfonyl)acetic acid at 10 mg/kg, po measured up to 24 hrs post dose by LC-PDA-MS/MS analysis; assay type: ADME, organism-based; settings: in vivo
[5] = Cmax in fasted Sprague-Dawley rat at 10 mg/kg, po administered as single dose measured up to 24 hrs post dose by LC-PDA-MS/MS analysis; assay type: ADME, organism-based; set-up: dose 10 mg/kg, route oral; settings: in vivo
[6] = Half life in fasted Sprague-Dawley rat at 10 mg/kg, po administered as single dose measured up to 24 hrs post dose by LC-PDA-MS/MS analysis; assay type: ADME, organism-based; settings: in vivo
[7] = AUC (0 to 24 hrs) in fasted Sprague-Dawley rat at 10 mg/kg, po administered as single dose measured up to 24 hrs post dose by LC-PDA-MS/MS analysis; assay type: ADME, organism-based; set-up: time < 24 hr, dose 10 mg/kg, route oral; settings: in vivo
[8] = Clearance in fasted Sprague-Dawley rat at 10 mg/kg, po administered as single dose measured up to 24 hrs post dose by LC-PDA-MS/MS analysis; assay type: ADME, organism-based; settings: in vivo

SMILES	EC50 [1] [nM]	Efficacy [2] [%]	further results
COc1cc(C)c(-c2cccc(COc3ccc(S(=O)(=O)C(C)(C)C(=O)O)cc3)c2)c(C)c1	> 1000	–	–
Cc1ccc(-c2c(C)noc2C)cc1COc1ccc(S(=O)(=O)CC(=O)O)cc1	427	73	–
O=C(CS(=O)(=O)c1ccc(OCc2cccc(-c3ccccc3Cl)c2)cc1)O[C@@H]1O[C@H](CO)[C@@H](O)[C@H](O)[C@H]1O	–	–	Drug metabolism [4]: Metabolite_Detected
COc1cc(C)c(-c2cccc(COc3ccc(S(=O)(=O)C4(C(=O)O)CC4)cc3)c2)c(C)c1	> 1000	–	–
COc1cc(C)c(-c2cccc(COc3ccc4c(c3)C(O)CC4CC(=O)O)c2)c(C)c1 (configuration not stated)	550	83	–
COc1cc(C)c(-c2cccc(COc3ccc(S(=O)(=O)C(C)C(=O)O)cc3)c2)c(C)c1 (configuration not stated)	> 1000	–	–
O=C(O)c1cccc(-c2ccccc2Cl)c1	–	–	Drug metabolism [4]: Metabolite_Detected
O=C(O)CS(=O)(=O)c1cccc(OCc2ccc(-c3ccccc3)cc2)c1	> 1000	–	–
O=C(O)CS(=O)(=O)c1ccc(OCc2cccc(-c3ccccc3)c2)cc1	288	94	Activity (HepG2): -1.9%; logD at 24 h, 100 µM [3]: 2.13
Cc1noc(C)c1-c1cccc(COc2ccc(S(=O)(=O)CC(=O)O)cc2)c1	269	82	–
Cc1ccccc1-c1ccc(COc2cccc(S(=O)(=O)CC(=O)O)c2)cc1	> 1000	–	–
Cc1noc(C)c1-c1cccc(COc2ccc(S(=O)(=O)CC(=O)O)cc2)c1C	363	77	–
Cc1nc(-c2cccc(F)c2)sc1COc1ccc(S(=O)(=O)CC(=O)O)cc1	275	84	–
Cc1nc(-c2ccccc2)sc1COc1ccc(S(=O)(=O)CC(=O)O)cc1	331	91	–
COc1cc(C)c(-c2cccc(COc3ccc4c(c3)S(=O)(=O)CC4CC(=O)O)c2)c(C)c1 (configuration not stated)	> 1000	–	–
Cc1nc(-c2ccccc2F)sc1COc1ccc(S(=O)(=O)CC(=O)O)cc1	550	75	–
N#Cc1ccccc1-c1cccc(COc2ccc(S(=O)(=O)CC(=O)O)cc2)c1	457	78	–
CO/N=C1\CC(CC(=O)O)c2ccc(OCc3cccc(-c4c(C)cc(OC)cc4C)c3)cc21 (configuration not stated)	> 1000	–	–
CCC(C(=O)O)S(=O)(=O)c1ccc(OCc2cccc(-c3c(C)cc(OC)cc3C)c2)cc1 (configuration not stated)	> 1000	–	–
O=C(CS(=O)(=O)c1ccc(OCc2cccc(-c3ccccc3Cl)c2)cc1)NCCS(=O)(=O)O	–	–	Drug metabolism [4]: Metabolite_Detected

Further molecules by falling EC50 [1], results first:

EC50 [1] [nM]	Efficacy [2] [%]	SMILES	further results
257	97	O=C(O)CS(=O)(=O)c1ccc(OCc2cccc(-c3ccccc3F)c2)cc1	–
251	85	Cc1nc(-c2cccc(Cl)c2)sc1COc1ccc(S(=O)(=O)CC(=O)O)cc1	–
234	87	COc1cc(C)c(-c2cccc(COc3ccc4c(c3)C(=O)CC4CC(=O)O)c2)c(C)c1 (configuration not stated)	–
234	84	Cc1noc(C)c1-c1ccc(Cl)c(COc2ccc(S(=O)(=O)CC(=O)O)cc2)c1	–
214	81	Cc1noc(C)c1-c1cc(COc2ccc(S(=O)(=O)CC(=O)O)cc2)ccc1Cl	–
214	82	Cc1cccc(-c2nc(C)c(COc3ccc(S(=O)(=O)CC(=O)O)cc3)s2)c1	–
195	96	COc1ccccc1-c1cccc(COc2ccc(S(=O)(=O)CC(=O)O)cc2)c1	–
195	95	Cc1cccc(C)c1-c1cccc(COc2ccc(SCC(=O)O)cc2)c1	logD at 24 h, 100 µM [3]: 3.82
191	92	Cc1nc(-c2ccc(F)cc2)sc1COc1ccc(S(=O)(=O)CC(=O)O)cc1	–
178	92	CO/N=C(\COc1ccc(COc2ccc(S(=O)(=O)CC(=O)O)cc2)cc1)c1ccccc1	–
170	83	Cc1cc(OCCCS(C)(=O)=O)cc(C)c1-c1cccc(COc2ccc(S(=O)(=O)CC(=O)O)cc2)c1	–
129	85	Cc1ccc(C)n1-c1cccc(COc2ccc(S(=O)(=O)CC(=O)O)cc2)c1	–
126	95	COCCOc1cc(C)c(-c2cccc(COc3ccc(S(=O)(=O)CC(=O)O)cc3)c2)c(C)c1	–
123	98	COc1cc(C)c(-c2cccc(COc3ccc4c(c3)SCC4CC(=O)O)c2)c(C)c1 (configuration not stated)	–
97.7	101	O=C(O)CS(=O)(=O)c1ccc(OCc2cccc(Oc3ccccc3)c2)cc1	–
95.5	96	Cc1cc(OCC(C)C)cc(C)c1-c1cccc(COc2ccc(S(=O)(=O)CC(=O)O)cc2)c1	logD at 24 h, 100 µM [3]: 3.94
79.4	98	Cc1cc(OCC2CC2)cc(C)c1-c1cccc(COc2ccc(S(=O)(=O)CC(=O)O)cc2)c1	Activity (HepG2): 26.3%; logD at 24 h, 100 µM [3]: 3.46
74.1	101	CC(C)c1ccccc1-c1cccc(COc2ccc(S(=O)(=O)CC(=O)O)cc2)c1	logD at 24 h, 100 µM [3]: 3.18
69.2	104	CCCOc1cc(C)c(-c2cccc(COc3ccc(S(=O)(=O)CC(=O)O)cc3)c2)c(C)c1	Activity (HepG2): 29.5%; logD at 24 h, 100 µM [3]: 3.58
66.1	103	Cc1cccc(C)c1-c1cccc(COc2ccc(S(=O)(=O)CC(=O)O)cc2)c1	Activity (HepG2): -1.5%; logD at 24 h, 100 µM [3]: 2.49
63.1	107	CCOc1cc(C)c(-c2cccc(COc3ccc(S(=O)(=O)CC(=O)O)cc3)c2)c(C)c1	Activity (HepG2): 6.7%; logD at 24 h, 100 µM [3]: 2.86
57.5	106	COc1cc(C)c(-c2cccc(COc3ccc(S(=O)(=O)CC(=O)O)cc3)c2)c(C)c1	Activity (HepG2): -2.4%; logD at 24 h, 100 µM [3]: 2.45
52.5	108	O=C(O)CS(=O)(=O)c1ccc(OCc2cccc(-c3ccccc3C(F)(F)F)c2)cc1	Activity (HepG2): 12.5%; logD at 24 h, 100 µM [3]: 2.95
51.3	105	CCOc1ccc(-c2cccc(COc3ccc(S(=O)(=O)CC(=O)O)cc3)c2)c(Cl)c1	Activity (HepG2): 26.9%; logD at 24 h, 100 µM [3]: 3.12
46.8	113	Cc1ccccc1-c1cccc(COc2ccc(S(=O)(=O)CC(=O)O)cc2)c1	Activity (HepG2): -2.7%; logD at 24 h, 100 µM [3]: 2.35
36.3	112	Cc1ccc(-c2cccc(COc3ccc(S(=O)(=O)CC(=O)O)cc3)c2)c(Cl)c1	Activity (HepG2): 17.6%; logD at 24 h, 100 µM [3]: 3.05
15.5	116	Cc1cc(OCCCS(C)(=O)=O)cc(C)c1-c1cccc(COc2ccc(CCC(=O)O)cc2)c1	Cmax [5]: 517 ng/mL; Activity (HepG2): 46.8%; half-life [6]: 1.09 h; AUC(0-t) at 24 h [7]: 1020 ng·h/mL; CL/F [8]: 118 mL/min/kg; logD at 24 h, 100 µM [3]: 3.75
